Target: HIV reverse transcriptase (Human immunodeficiency virus type 1 group M subtype B, UniProt P03366)
Test: Reverse transcriptase scintillation proximity assay (Example 4, Table 2)
Format: biochemical
Details: 10 μM inhibitor; relative to dimethyl sulfoxide = 100%; 3 min, 10 µM
Description: Reverse transcriptase ("RT") activity is measured using a scintillation proximity assay kit available from Amersham Life Sciences, Inc., which uses a biotin/streptavidin bead capture system. RNA-dependent polymerase activity is measured using purified […] and a synthetic 17mer/50mer RNA-DNA template-primer containing biotin at the 5' end of the DNA. The template-primer, buffer, dNTP, and inhibitor are incubated for 10 minutes at 37° C. before the RT is added. The final 100 μl reaction mixture contains: 39 nm of template primer, buffer (40 mM tris HCl at pH 8.0, 10 mM MgCl2, 60 mM KCl, 10 mM dithiothreitol); 75 nM of each dNTP except dTTP; 25 nM dTTP and 35 nM tritium labeled d*TTP; 10 μM inhibitor; and 1.0-2.0 μg of RT. After three minute incubation, the reaction is quenched with 40 μl of 0.56M EDTA. Then 10 μl of streptavidin SPA beads (in suspension) are added and incubated at 37° C. for 10 minutes. Finally, 850 μl of a buffer containing 10 mM Tris HCl pH 7.4 and 0.15M NaCl is added. The signal is produced by biotinylated polymers incorporating d*TTP binding to the streptavidin beads which stimulate the scintillant. The amount of d*TTP incorporated in the polymer is measured with a scintillation counter.
Compounds showing good inhibition will give a low number of counts/min (cpm). This number is related to a standard, dimethyl sulfoxide, which is given an arbitrary 100% relative activity. All cpm data in a single run are given a percent of this standard.

Compound	% RT activity remaining at 10 μM
O=C(O)c1ccc(N=Nc2c(S(=O)(=O)O)cc3cc(NC(=O)c4ccc(C(=O)Nc5ccc6c(O)c(N=Nc7ccc(C(=O)O)cc7)c(S(=O)(=O)O)cc6c5)cc4)ccc3c2O)cc1 [Compound 162]	5.9%
O=C(O)c1ccc(N=Nc2c(S(=O)(=O)O)cc3cc(NC(=O)c4ccc(C(=O)Nc5ccc6c(O)c(N=Nc7ccc(C(=O)O)cc7)c(S(=O)(=O)O)cc6c5)cc4)ccc3c2O)cc1 [Compound 169]	.15%

Same assay, conditions: 0.05 h, 10 μM inhibitor; relative to dimethyl sulfoxide = 100%; read-out: % RT activity remaining at 10 μM

Compound	remaining activity at 10 µM
O=C(O)CCCCCc1ccc(N=Nc2c(S(=O)(=O)O)cc3cc(NC(=O)c4cc(=O)cc(C(=O)Nc5ccc6c(O)c(N=Nc7ccc(CCCCCC(=O)O)cc7)c(S(=O)(=O)O)cc6c5)o4)ccc3c2O)cc1 [Compound 135]	0.16%
O=C(O)/C=C/c1ccc(N=Nc2c(S(=O)(=O)O)cc3cc(NC(=O)c4cc(=O)cc(C(=O)Nc5ccc6c(O)c(N=Nc7ccc(/C=C/C(=O)O)cc7)c(S(=O)(=O)O)cc6c5)o4)ccc3c2O)cc1 [Compound 137]	0.53%
COc1cc(C(=O)O)ccc1N=Nc1c(S(=O)(=O)O)cc2cc(NC(=O)c3cc(=O)cc(C(=O)Nc4ccc5c(O)c(N=Nc6ccc(C(=O)O)cc6OC)c(S(=O)(=O)O)cc5c4)o3)ccc2c1O [Compound 139]	0.34%
O=C(O)c1cc(N=Nc2c(S(=O)(=O)O)cc3cc(NC(=O)c4cc(=O)cc(C(=O)Nc5ccc6c(O)c(N=Nc7cc(C(=O)O)cc(C(=O)O)c7)c(S(=O)(=O)O)cc6c5)o4)ccc3c2O)cc(C(=O)O)c1 [Compound 143]	0.23%
Cc1cc(C(=O)O)ccc1N=Nc1c(S(=O)(=O)O)cc2cc(NC(=O)c3cc(=O)cc(C(=O)Nc4ccc5c(O)c(N=Nc6ccc(C(=O)O)cc6C)c(S(=O)(=O)O)cc5c4)o3)ccc2c1O [Compound 144]	0.26%
O=C(Nc1ccc2c(O)cc(S(=O)(=O)O)cc2c1)c1cc(O)cc(C(=O)Nc2ccc3c(O)cc(S(=O)(=O)O)cc3c2)n1 [Compound 145]	47%
O=C(O)Cc1ccc(N=Nc2c(S(=O)(=O)O)cc3cc(NC(=O)c4cc(O)cc(C(=O)Nc5ccc6c(O)c(N=Nc7ccc(CC(=O)O)cc7)c(S(=O)(=O)O)cc6c5)n4)ccc3c2O)cc1 [Compound 147]	0.3%
O=C(O)c1cccc(N=Nc2c(S(=O)(=O)O)cc3cc(NC(=O)c4cc(O)cc(C(=O)Nc5ccc6c(O)c(N=Nc7cccc(C(=O)O)c7)c(S(=O)(=O)O)cc6c5)n4)ccc3c2O)c1 [Compound 150]	0.6%
O=C(O)/C=C/c1ccc(N=Nc2c(S(=O)(=O)O)cc3cc(NC(=O)c4cc(O)cc(C(=O)Nc5ccc6c(O)c(N=Nc7ccc(/C=C/C(=O)O)cc7)c(S(=O)(=O)O)cc6c5)n4)ccc3c2O)cc1 [Compound 151]	0.2%
COc1cc(C(=O)O)ccc1N=Nc1c(S(=O)(=O)O)cc2cc(NC(=O)c3cc(O)cc(C(=O)Nc4ccc5c(O)c(N=Nc6ccc(C(=O)O)cc6OC)c(S(=O)(=O)O)cc5c4)n3)ccc2c1O [Compound 153]	0.15%
COc1cc(N=Nc2c(S(=O)(=O)O)cc3cc(NC(=O)c4cc(O)cc(C(=O)Nc5ccc6c(O)c(N=Nc7cc(OC)c(OC)c(OC)c7C(=O)O)c(S(=O)(=O)O)cc6c5)n4)ccc3c2O)c(C(=O)O)c(OC)c1OC [Compound 156]	15%
O=C(Nc1ccc2c(O)cc(S(=O)(=O)O)cc2c1)c1ccc(C(=O)Nc2ccc3c(O)cc(S(=O)(=O)O)cc3c2)cc1 [Compound 160]	74%
O=C(O)/C=C/c1ccc(N=Nc2c(S(=O)(=O)O)cc3cc(NC(=O)c4ccc(C(=O)Nc5ccc6c(O)c(N=Nc7ccc(/C=C/C(=O)O)cc7)c(S(=O)(=O)O)cc6c5)cc4)ccc3c2O)cc1 [Compound 161]	25%
O=C(O)Cc1ccc(N=Nc2c(S(=O)(=O)O)cc3cc(NC(=O)c4ccc(C(=O)Nc5ccc6c(O)c(N=Nc7ccc(CC(=O)O)cc7)c(S(=O)(=O)O)cc6c5)cc4)ccc3c2O)cc1 [Compound 163]	0.1%
O=C(O)CCc1ccc(N=Nc2c(S(=O)(=O)O)cc3cc(NC(=O)c4ccc(C(=O)Nc5ccc6c(O)c(N=Nc7ccc(CCC(=O)O)cc7)c(S(=O)(=O)O)cc6c5)cc4)ccc3c2O)cc1 [Compound 164]	0.15%
O=C(O)CCCc1ccc(N=Nc2c(S(=O)(=O)O)cc3cc(NC(=O)c4ccc(C(=O)Nc5ccc6c(O)c(N=Nc7ccc(CCCC(=O)O)cc7)c(S(=O)(=O)O)cc6c5)cc4)ccc3c2O)cc1 [Compound 165]	3.7%
O=C(O)CC(C(=O)O)c1ccc(N=Nc2c(S(=O)(=O)O)cc3cc(NC(=O)c4ccc(C(=O)Nc5ccc6c(O)c(N=Nc7ccc(C(CC(=O)O)C(=O)O)cc7)c(S(=O)(=O)O)cc6c5)cc4)ccc3c2O)cc1 (stereo not shown) [Compound 166]	0.14%

Compound	remaining activity at 10 µM
COc1cc(C(=O)O)ccc1N=Nc1c(S(=O)(=O)O)cc2cc(NC(=O)c3ccc(C(=O)Nc4ccc5c(O)c(N=Nc6ccc(C(=O)O)cc6OC)c(S(=O)(=O)O)cc5c4)cc3)ccc2c1O [Compound 167]	0.26%
Cc1cc(C(=O)O)ccc1N=Nc1c(S(=O)(=O)O)cc2cc(NC(=O)c3ccc(C(=O)Nc4ccc5c(O)c(N=Nc6ccc(C(=O)O)cc6C)c(S(=O)(=O)O)cc5c4)cc3)ccc2c1O [Compound 168]	0.5%
O=C(O)c1cccc(N=Nc2c(S(=O)(=O)O)cc3cc(NC(=O)c4ccc(C(=O)Nc5ccc6c(O)c(N=Nc7cccc(C(=O)O)c7)c(S(=O)(=O)O)cc6c5)cc4)ccc3c2O)c1 [Compound 170]	0.1%
O=C(Nc1ccc2c(O)c(N=Nc3cc(F)c(F)c(C(=O)O)c3F)c(S(=O)(=O)O)cc2c1)c1ccc(C(=O)Nc2ccc3c(O)c(N=Nc4cc(F)c(F)c(C(=O)O)c4F)c(S(=O)(=O)O)cc3c2)cc1 [Compound 171]	0.15%
O=C(O)c1ccc(Cl)c(N=Nc2c(S(=O)(=O)O)cc3cc(NC(=O)c4ccc(C(=O)Nc5ccc6c(O)c(N=Nc7cc(C(=O)O)ccc7Cl)c(S(=O)(=O)O)cc6c5)cc4)ccc3c2O)c1 [Compound 172]	0.08%
O=C(O)c1ccc(C(=O)O)c(N=Nc2c(S(=O)(=O)O)cc3cc(NC(=O)c4ccc(C(=O)Nc5ccc6c(O)c(N=Nc7cc(C(=O)O)ccc7C(=O)O)c(S(=O)(=O)O)cc6c5)cc4)ccc3c2O)c1 [Compound 173]	27%
CC(=O)Nc1ccc(N=Nc2c(S(=O)(=O)O)cc3cc(NC(=O)c4ccc(C(=O)Nc5ccc6c(O)c(N=Nc7ccc(NC(C)=O)cc7)c(S(=O)(=O)O)cc6c5)cc4)ccc3c2O)cc1 [Compound 174]	28%
COc1cc(N=Nc2c(S(=O)(=O)O)cc3cc(NC(=O)c4ccc(C(=O)Nc5ccc6c(O)c(N=Nc7cc(OC)c(OC)c(OC)c7)c(S(=O)(=O)O)cc6c5)cc4)ccc3c2O)cc(OC)c1OC [Compound 175]	62%
COc1ccc(N=Nc2c(S(=O)(=O)O)cc3cc(NC(=O)c4ccc(C(=O)Nc5ccc6c(O)c(N=Nc7ccc(OC)cc7)c(S(=O)(=O)O)cc6c5)cc4)ccc3c2O)cc1 [Compound 176]	60%
COc1cc(C(=O)O)c(N=Nc2c(S(=O)(=O)O)cc3cc(NC(=O)c4ccc(C(=O)Nc5ccc6c(O)c(N=Nc7c(C(=O)O)cc(OC)c(OC)c7OC)c(S(=O)(=O)O)cc6c5)cc4)ccc3c2O)c(OC)c1OC [Compound 177]	0.17%
O=C(O)c1cc(N=Nc2c(S(=O)(=O)O)cc3cc(NC(=O)c4ccc(C(=O)Nc5ccc6c(O)c(N=Nc7cc(C(=O)O)cc(C(=O)O)c7)c(S(=O)(=O)O)cc6c5)cc4)ccc3c2O)cc(C(=O)O)c1 [Compound 178]	91%
COc1cc(N=Nc2c(S(=O)(=O)O)cc3cc(NC(=O)c4ccc(C(=O)Nc5ccc6c(O)c(N=Nc7cc(OC)c(OC)cc7C(=O)O)c(S(=O)(=O)O)cc6c5)cc4)ccc3c2O)c(C(=O)O)cc1OC [Compound 179]	7.5%
Cc1ccc(CO)cc1N=Nc1c(S(=O)(=O)O)cc2cc(NC(=O)c3ccc(C(=O)Nc4ccc5c(O)c(N=Nc6cc(CO)ccc6C)c(S(=O)(=O)O)cc5c4)cc3)ccc2c1O [Compound 180]	45%
O=C(Nc1ccc2c(O)c(N=Nc3ccc(Cl)cc3)c(S(=O)(=O)O)cc2c1)c1ccc(C(=O)Nc2ccc3c(O)c(N=Nc4ccc(Cl)cc4)c(S(=O)(=O)O)cc3c2)cc1 [Compound 181]	43%
O=C(Nc1ccc2c(O)c(N=Nc3ccc(Br)cc3Br)c(S(=O)(=O)O)cc2c1)c1ccc(C(=O)Nc2ccc3c(O)c(N=Nc4ccc(Br)cc4Br)c(S(=O)(=O)O)cc3c2)cc1 [Compound 182]	35%
Cc1cc2nc(N=Nc3c(S(=O)(=O)O)cc4cc(NC(=O)c5ccc(C(=O)Nc6ccc7c(O)c(N=Nc8nc9cc(C)c(C)cc9[nH]8)c(S(=O)(=O)O)cc7c6)cc5)ccc4c3O)[nH]c2cc1C [Compound 183]	36%

Same assay, conditions: read-out: IC50 (RT activity)

Compound	IC50
O=C(Nc1ccc2c(O)c(N=Nc3ccc(-c4nnn[nH]4)cc3)c(S(=O)(=O)O)cc2c1)Nc1ccc2c(O)c(N=Nc3ccc(-c4nnn[nH]4)cc3)c(S(=O)(=O)O)cc2c1 [Compound 159]	220 nM
O=c1c(Nc2ccc3c(O)cc(S(=O)(=O)O)cc3c2)c(Nc2ccc3c(O)cc(S(=O)(=O)O)cc3c2)c1=O [Compound 184]	1000 nM

Source: patent US6140368A, “Naphthols useful in antiviral methods” (The Regents of the University of California, priority 1998, dated 2000)
